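GI50 marks 50% less growth. Definition used: TGI = concentration required for complete inhibition of growth.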
Columns and labels:
Experiment in all cases: DTP human tumour cell line panel, 384-well format
HOP-62 NSCLC = test system: HOP-62 NSCLC
MDA-MB-435 melanoma = test system: MDA-MB-435 melanoma
HT29 colon = test system: HT29 colon
SF-268 CNS = test system: SF-268 CNS
UO-31 renal = test system: UO-31 renal
SK-MEL-28 melanoma = test system: SK-MEL-28 melanoma
NCI-H322M lung = test system: NCI-H322M lung
SNB-19 CNS = test system: SNB-19 CNS
BT-549 breast = test system: BT-549 breast
MCF7 breast = test system: MCF7 breast
HS 578T breast = test system: HS 578T breast
ACHN renal = test system: ACHN renal
CCRF-CEM leukemia = test system: CCRF-CEM leukemia
IGROV1 ovarian = test system: IGROV1 ovarian
LOX IMVI melanoma = test system: LOX IMVI melanoma
T-47D breast = test system: T-47D breast
NCI-H226 lung = test system: NCI-H226 lung
786-0 renal = test system: 786-0 renal
SK-MEL-2 melanoma = test system: SK-MEL-2 melanoma
SNB-75 CNS = test system: SNB-75 CNS
M14 melanoma = test system: M14 melanoma
TK-10 renal = test system: TK-10 renal
EKVX NSCLC = test system: EKVX NSCLC
MALME-3M melanoma = test system: MALME-3M melanoma
MDA-MB-468 breast = test system: MDA-MB-468 breast
U251 glioblastoma = test system: U251 glioblastoma
K-562 leukemia = test system: K-562 leukemia
COLO 205 colon = test system: COLO 205 colon
A549 NSCLC = test system: A549 NSCLC
OVCAR-4 ovarian = test system: OVCAR-4 ovarian
MOLT-4 leukemia = test system: MOLT-4 leukemia
DU-145 prostate = test system: DU-145 prostate
NCI-H23 lung = test system: NCI-H23 lung
SK-OV-3 ovarian = test system: SK-OV-3 ovarian
HCT-15 colon = test system: HCT-15 colon
OVCAR-8 ovarian = test system: OVCAR-8 ovarian
NCI-H522 lung = test system: NCI-H522 lung
SN12C renal = test system: SN12C renal
UACC-62 melanoma = test system: UACC-62 melanoma
SK-MEL-5 melanoma = test system: SK-MEL-5 melanoma
SF-539 CNS = test system: SF-539 CNS
NCI/ADR-RES ovarian = test system: NCI/ADR-RES ovarian
OVCAR-5 ovarian = test system: OVCAR-5 ovarian
OVCAR-3 ovarian = test system: OVCAR-3 ovarian
HCT-116 colon = test system: HCT-116 colon
MDA-MB-231 breast = test system: MDA-MB-231 breast
RPMI-8226 leukemia = test system: RPMI-8226 leukemia

## c1cn2cc(-c3ccc4cn[nH]c4c3)nc(Nc3ccc(N4CCOCC4)cc3)c2n1
HOP-62 NSCLC
  GI50: 9.54 µM
  TGI: 22.2 µM
MDA-MB-435 melanoma
  GI50: 22.6 µM
  TGI: > 75.5 µM
HT29 colon
  GI50: 28.1 µM
  TGI: > 100 µM
SF-268 CNS
  GI50: 4.45 µM
  TGI: 16.9 µM
UO-31 renal
  GI50: 12.4 µM
  TGI: 32 µM
SK-MEL-28 melanoma
  GI50: 12.4 µM
  TGI: 29.6 µM
NCI-H322M lung
  GI50: 12.3 µM
  TGI: 37.5 µM
SNB-19 CNS
  GI50: 8.81 µM
  TGI: 21.4 µM
BT-549 breast
  GI50: 11.2 µM
  TGI: 23.5 µM
MCF7 breast
  GI50: 8.62 µM
  TGI: 30.2 µM
HS 578T breast
  GI50: 1.87 µM
  TGI: 8.11 µM
ACHN renal
  GI50: 10.7 µM
  TGI: 25.1 µM
CCRF-CEM leukemia
  GI50: > 100 µM
  TGI: > 100 µM
IGROV1 ovarian
  GI50: 14.1 µM
  TGI: 37.9 µM
LOX IMVI melanoma
  GI50: 15.4 µM
  TGI: 36.6 µM
T-47D breast
  GI50: 3.73 µM
  TGI: 21.2 µM
NCI-H226 lung
  GI50: 9.38 µM
  TGI: 23 µM
786-0 renal
  GI50: 8.76 µM
  TGI: 21.1 µM
SK-MEL-2 melanoma
  GI50: 1.67 µM
  TGI: 8.99 µM
SNB-75 CNS
  GI50: 2.15 µM
  TGI: 9.11 µM
M14 melanoma
  GI50: 23.5 µM
  TGI: 86.6 µM
TK-10 renal
  GI50: 5.67 µM
  TGI: 22 µM
EKVX NSCLC
  GI50: 9.48 µM
  TGI: 25.1 µM
MALME-3M melanoma
  GI50: 6.24 µM
  TGI: 19.4 µM
MDA-MB-468 breast
  GI50: 16.1 µM
  TGI: 57.1 µM
U251 glioblastoma
  GI50: 9.72 µM
  TGI: 25.4 µM
K-562 leukemia
  GI50: > 100 µM
  TGI: > 100 µM
COLO 205 colon
  GI50: 37.8 µM
  TGI: > 100 µM
A549 NSCLC
  GI50: 17.1 µM
  TGI: > 53.8 µM
OVCAR-4 ovarian
  GI50: 6.52 µM
  TGI: 20 µM
MOLT-4 leukemia
  GI50: 48 µM
  TGI: > 100 µM
DU-145 prostate
  GI50: 10 µM
  TGI: 22.7 µM
NCI-H23 lung
  GI50: 10.8 µM
  TGI: 25.7 µM
SK-OV-3 ovarian
  GI50: 5.35 µM
  TGI: 19.3 µM
HCT-15 colon
  GI50: 19.4 µM
  TGI: > 100 µM
OVCAR-8 ovarian
  GI50: 4.82 µM
  TGI: 17.1 µM
NCI-H522 lung
  GI50: 3.46 µM
  TGI: 12.8 µM
SN12C renal
  GI50: 10 µM
  TGI: 22.6 µM
UACC-62 melanoma
  GI50: 7.97 µM
  TGI: 20.9 µM
SK-MEL-5 melanoma
  GI50: 11.3 µM
  TGI: 32.8 µM
SF-539 CNS
  GI50: 4.6 µM
  TGI: 16.5 µM
NCI/ADR-RES ovarian
  GI50: 11.7 µM
  TGI: 29.6 µM
OVCAR-5 ovarian
  GI50: 12.8 µM
  TGI: 30.3 µM
OVCAR-3 ovarian
  GI50: 12.7 µM
  TGI: 28.3 µM
HCT-116 colon
  GI50: 15 µM
  TGI: 34.3 µM
MDA-MB-231 breast
  GI50: 10.1 µM
  TGI: 21.9 µM
RPMI-8226 leukemia
  GI50: 16.9 µM
  TGI: > 58.6 µM

## C=CC(=O)N[C@H]1CCOC[C@H]1Nc1ncc2cc(-c3c(Cl)c(OC)cc(OC)c3Cl)ccc2n1
HOP-62 NSCLC
  GI50: 20.4 µM
  TGI: 57.2 µM
MDA-MB-435 melanoma
  GI50: > 64.3 µM
  TGI: > 100 µM
HT29 colon
  GI50: 14 µM
  TGI: 96.2 µM
SF-268 CNS
  GI50: 4.16 µM
  TGI: 23.9 µM
UO-31 renal
  GI50: 23.3 µM
  TGI: 98 µM
SK-MEL-28 melanoma
  GI50: 35.6 µM
  TGI: > 100 µM
NCI-H322M lung
  GI50: 27.7 µM
  TGI: > 100 µM
SNB-19 CNS
  GI50: 19.2 µM
  TGI: 55.7 µM
BT-549 breast
  GI50: 4.77 µM
  TGI: 19.5 µM
MCF7 breast
  GI50: 11.9 µM
  TGI: 46.4 µM
HS 578T breast
  GI50: 12 µM
  TGI: 27.9 µM
ACHN renal
  GI50: 30.6 µM
  TGI: > 100 µM
CCRF-CEM leukemia
  GI50: 9.81 µM
  TGI: 22.2 µM
IGROV1 ovarian
  GI50: 17.9 µM
  TGI: 63.5 µM
LOX IMVI melanoma
  GI50: 13 µM
  TGI: 27.3 µM
T-47D breast
  GI50: 5.24 µM
  TGI: 23 µM
NCI-H226 lung
  GI50: 4.55 µM
  TGI: 20.8 µM
786-0 renal
  GI50: 16.5 µM
  TGI: 50.1 µM
SK-MEL-2 melanoma
  GI50: 15.9 µM
  TGI: 30.4 µM
SNB-75 CNS
  GI50: 6.99 µM
  TGI: 33.5 µM
M14 melanoma
  GI50: 16.8 µM
  TGI: > 69.2 µM
TK-10 renal
  GI50: 20.9 µM
  TGI: > 95.6 µM
EKVX NSCLC
  GI50: 12.3 µM
  TGI: 39.6 µM
MALME-3M melanoma
  GI50: > 53.7 µM
  TGI: > 100 µM
MDA-MB-468 breast
  GI50: 3.37 µM
  TGI: 13.9 µM
U251 glioblastoma
  GI50: 15 µM
  TGI: 36.1 µM
K-562 leukemia
  GI50: 7.1 µM
  TGI: 26.9 µM
COLO 205 colon
  GI50: 18.2 µM
  TGI: 46.1 µM
A549 NSCLC
  GI50: 17.3 µM
  TGI: 74.2 µM
OVCAR-4 ovarian
  GI50: 14.9 µM
  TGI: 54.1 µM
MOLT-4 leukemia
  GI50: 2.59 µM
  TGI: 14.8 µM
DU-145 prostate
  GI50: 27.4 µM
  TGI: > 100 µM
NCI-H23 lung
  GI50: 16.9 µM
  TGI: 63.9 µM
SK-OV-3 ovarian
  GI50: 19.4 µM
  TGI: 63.4 µM
HCT-15 colon
  GI50: 11.4 µM
  TGI: 35.5 µM
OVCAR-8 ovarian
  GI50: 16 µM
  TGI: 35.1 µM
NCI-H522 lung
  GI50: 13.9 µM
  TGI: 32.2 µM
SN12C renal
  GI50: 15.4 µM
  TGI: 75 µM
UACC-62 melanoma
  GI50: 10.7 µM
  TGI: 25.1 µM
SK-MEL-5 melanoma
  GI50: 10.9 µM
  TGI: 23.6 µM
SF-539 CNS
  GI50: 13.5 µM
  TGI: 28.2 µM
NCI/ADR-RES ovarian
  GI50: 12.9 µM
  TGI: 30.8 µM
OVCAR-5 ovarian
  GI50: 27.5 µM
  TGI: > 88.4 µM
OVCAR-3 ovarian
  GI50: 13.9 µM
  TGI: 34 µM
HCT-116 colon
  GI50: 15.1 µM
  TGI: 33.6 µM
MDA-MB-231 breast
  GI50: 9.96 µM
  TGI: > 78.7 µM
RPMI-8226 leukemia
  GI50: 4.12 µM
  TGI: 15 µM

Source: PubChem BioAssay (NCI)
